This passage reports log10CFU/ml, MIC and Activity results from ChEMBL document CHEMBL1147112 (2007).

As usually defined, the MIC is the lowest concentration that inhibits growth of the organism.

In assay [1] the test system is Staphylococcus aureus. The assay can be described thus: Antimicrobial activity against methicillin-susceptible Staphylococcus aureus ATCC 29213 in human monocyte-derived macrophages at 0.5 ug/ml assessed as bacterial viability after 4 hrs. Format: functional.
The subject of assay [2] is Staphylococcus aureus. Kind of assay: Antimicrobial activity against methicillin-susceptible Staphylococcus aureus ATCC 29213 in human monocyte-derived macrophages at 0.5 ug/ml assessed as bacterial viability after 24 hrs. The format is functional.
In assay [3] the test system is Staphylococcus aureus. Kind of assay: Antimicrobial activity against methicillin-resistant Staphylococcus aureus ATCC 43300 in human monocyte-derived macrophages at 0.25 ug/ml assessed as bacterial viability after 24 hrs. Format: functional.
Assay [4] has as its system Staphylococcus aureus. Kind of assay: Antimicrobial activity against methicillin-susceptible Staphylococcus aureus ATCC 29213 in human monocyte-derived macrophages at 2.5 ug/ml assessed as bacterial viability after 4 hrs. Format: functional.
The test system of assay [5] is Staphylococcus aureus. The assay can be described thus: Antimicrobial activity against methicillin-susceptible Staphylococcus aureus ATCC 29213 in human monocyte-derived macrophages at 2.5 ug/ml assessed as bacterial viability after 2 hrs. The format is functional.
For assay [6], the system named is Staphylococcus aureus. The assay can be described thus: Antimicrobial activity against methicillin-susceptible Staphylococcus aureus ATCC 29213 in human monocyte-derived macrophages at 0.25 ug/ml assessed as bacterial viability after 2 hrs. Format: functional.
Assay [7] relates to Staphylococcus aureus. The assay can be described thus: Antimicrobial activity against methicillin-resistant Staphylococcus aureus ATCC 43300 in human monocyte-derived macrophages at 0.5 ug/ml assessed as bacterial viability after 2 hrs. Format: functional.
In assay [8] the test system is Staphylococcus aureus. Kind of assay: Antimicrobial activity against methicillin-resistant Staphylococcus aureus ATCC 43300 in human monocyte-derived macrophages at 0.5 ug/ml assessed as bacterial viability after 4 hrs. Format: functional.
In assay [9] the test system is Staphylococcus aureus. Kind of assay: Antimicrobial activity against methicillin-susceptible Staphylococcus aureus ATCC 29213 in human monocyte-derived macrophages at 5 ug/ml assessed as bacterial viability after 24 hrs. Format: functional.
Assay [10] has as its system Staphylococcus aureus. The assay can be described thus: Antimicrobial activity against methicillin-susceptible Staphylococcus aureus ATCC 29213 in human monocyte-derived macrophages at 5 ug/ml assessed as bacterial viability after 4 hrs. Format: functional.
The subject of assay [11] is Staphylococcus aureus. Kind of assay: Antimicrobial activity against methicillin-resistant Staphylococcus aureus ATCC 43300 in human monocyte-derived macrophages at 0.5 ug/ml assessed as bacterial viability after 24 hrs. Format: functional.
Assay [12] deals with Staphylococcus aureus. The assay can be described thus: Antimicrobial activity against methicillin-resistant Staphylococcus aureus ATCC 43300 in human monocyte-derived macrophages at 5 ug/ml assessed as bacterial viability after 24 hrs. The format is functional.
For assay [13], the system named is Staphylococcus aureus. The assay can be described thus: Antimicrobial activity against methicillin-susceptible Staphylococcus aureus ATCC 29213 in human monocyte-derived macrophages at 5 ug/ml assessed as bacterial viability after 2 hrs. The format is functional.
The test system of assay [14] is Staphylococcus aureus. Kind of assay: Antimicrobial activity against methicillin-susceptible Staphylococcus aureus ATCC 29213 in human monocyte-derived macrophages at 2.5 ug/ml assessed as bacterial viability after 24 hrs. The format is functional.
Assay [15] has as its system Staphylococcus aureus. Kind of assay: Antimicrobial activity against methicillin-resistant Staphylococcus aureus ATCC 43300 in human monocyte-derived macrophages at 0.25 ug/ml assessed as bacterial viability after 2 hrs. The format is functional.
Assay [16] concerns Staphylococcus aureus. The assay can be described thus: Antimicrobial activity against methicillin-resistant Staphylococcus aureus ATCC 43300 in human monocyte-derived macrophages at 2.5 ug/ml assessed as bacterial viability after 4 hrs. The format is functional.
Assay [17] deals with Staphylococcus aureus. Kind of assay: Antimicrobial activity against methicillin-susceptible Staphylococcus aureus ATCC 29213 in human monocyte-derived macrophages at 0.25 ug/ml assessed as bacterial viability after 4 hrs. Format: functional.
In assay [18] the test system is Staphylococcus aureus. The assay can be described thus: Antimicrobial activity against methicillin-resistant Staphylococcus aureus ATCC 43300 in human monocyte-derived macrophages at 5 ug/ml assessed as bacterial viability after 2 hrs. The format is functional.
Assay [19] has as its system Staphylococcus aureus. Kind of assay: Antimicrobial activity against methicillin-resistant Staphylococcus aureus ATCC 43300 in human monocyte-derived macrophages at 0.25 ug/ml assessed as bacterial viability after 4 hrs. The format is functional.
The test system of assay [20] is Staphylococcus aureus. Kind of assay: Antimicrobial activity against methicillin-resistant Staphylococcus aureus ATCC 43300 in human monocyte-derived macrophages at 5 ug/ml assessed as bacterial viability after 4 hrs. The format is functional.
The test system of assay [21] is Staphylococcus aureus. The assay can be described thus: Antimicrobial activity against methicillin-susceptible Staphylococcus aureus ATCC 29213 in human monocyte-derived macrophages at 0.25 ug/ml assessed as bacterial viability after 24 hrs. Format: functional.
The subject of assay [22] is Staphylococcus aureus. The assay can be described thus: Antimicrobial activity against methicillin-susceptible Staphylococcus aureus ATCC 29213 in human monocyte-derived macrophages at 0.5 ug/ml assessed as bacterial viability after 2 hrs. The format is functional.
Assay [23] relates to Staphylococcus aureus. Kind of assay: Antimicrobial activity against methicillin-resistant Staphylococcus aureus ATCC 43300 in human monocyte-derived macrophages at 2.5 ug/ml assessed as bacterial viability after 2 hrs. The format is functional.
Assay [24] relates to Staphylococcus aureus. Kind of assay: Antimicrobial activity against methicillin-resistant Staphylococcus aureus ATCC 43300 in human monocyte-derived macrophages at 2.5 ug/ml assessed as bacterial viability after 24 hrs. Format: functional.
Assay [25] relates to Staphylococcus aureus. Kind of assay: Antimicrobial activity against methicillin-resistant Staphylococcus aureus 8111. Format: functional.
The test system of assay [26] is Staphylococcus aureus. Kind of assay: Antimicrobial activity against methicillin-resistant Staphylococcus aureus ATCC 43300. The format is functional.
For assay [27], the system named is Staphylococcus aureus. The assay can be described thus: Extracellular killing of Staphylococcus aureus 8111 in MH-2 broth at 0.5 ug/ml assessed as suppression of number of viable bacteria after 24 hrs. The format is functional, organism-based.
For assay [28], the system named is Staphylococcus aureus. Kind of assay: Antimicrobial activity against methicillin-susceptible Staphylococcus aureus ATCC 29213. The format is functional.

Values after ≈ are worked out from the molar mass of the structure shown. Active and inactive are the calls of the source. The calls are words filed in the database; no cut-off is given here.

In the case of `CN[C@H](CC(C)C)C(=O)N[C@H]1C(=O)N[C@@H](CC(N)=O)C(=O)N[C@H]2C(=O)N[C@H]3C(=O)N[C@H](C(=O)N[C@H](C(=O)O)c4cc(O)cc(O)c4-c4cc3ccc4O)[C@H](O)c3ccc(c(Cl)c3)Oc3cc2cc(c3O[C@@H]2O[C@H](CO)[C@@H](O)[C@H](O)[C@H]2O[C@H]2C[C@](C)(N)[C@H](O)[C@H](C)O2)Oc2ccc(cc2Cl)[C@H]1O` [VANCOMYCIN], the log10CFU/ml is reported as 1.85 in assay [1]; 2.17 in assay [2]; 2.47 in assay [3]; -1.07 in [4]; -0.86 in [5]; 0.98 in assay [6]. For the same molecule, the log10CFU/ml in [7] is given as -0.39; in [8] it was 0.03; in assay [9], -0.85; in assay [10] it was -1.14; in assay [11], 2.23; in assay [12], -1.62. The log10CFU/ml in [13] is reported as -0.85; in [14], -0.46; in assay [15], 0.6; in [16], -0.88; in [17], 2.14; in assay [18], -0.51. The log10CFU/ml in assay [19] is recorded as 1.58; in assay [20], -0.84; in assay [21] it was 2.17; in assay [22], 0.51; in assay [23] it was -0.38; in assay [24], -1.6.
As to `CCCCCCCCCC(=O)N[C@@H](Cc1c[nH]c2ccccc12)C(=O)N[C@H](CC(N)=O)C(=O)N[C@@H](CC(=O)O)C(=O)N[C@@H]1C(=O)NCC(=O)N[C@@H](CCCN)C(=O)N[C@@H](CC(=O)O)C(=O)N[C@H](C)C(=O)N[C@@H](CC(=O)O)C(=O)NCC(=O)N[C@H](CO)C(=O)N[C@@H]([C@H](C)CC(=O)O)C(=O)N[C@@H](CC(=O)c2ccccc2N)C(=O)O[C@@H]1C`, the MIC in [25], in assay [26] and in assay [28] was 0.5 µg/mL (≈ 0.309 µM) throughout. Moreover, the log10CFU/ml in assay [1] is 0.76; in assay [2], 2; in [3], 2.1; in assay [4] it was -1.75; in assay [5] it was -1.7; in assay [6], 0.57. Besides, the log10CFU/ml in assay [8] is listed as 0; in assay [9], -0.52; in assay [10] it was -2.05; in [11], 1.93; in [12], -1.06; in assay [13] it was -2. Moreover, the log10CFU/ml in assay [14] is given as -0.32; in [15], 0.14; in assay [16] it was -1.48; in assay [17], 1.84; in assay [18], -1.52; in [19], 1.27. For the same molecule, the log10CFU/ml in [20] was -1.8; in [21], 2.02; in [22] it was -0.59; in assay [23], -1.35; in assay [24], -0.83. Besides, the outcome in [27] was Active.
Consider `CO[C@H]1/C=C/O[C@@]2(C)Oc3c(C)c(O)c4c(O)c(c(/C=N/N5CCN(C)CC5)c(O)c4c3C2=O)NC(=O)/C(C)=C\C=C\[C@H](C)[C@H](O)[C@@H](C)[C@@H](O)[C@@H](C)[C@H](OC(C)=O)[C@@H]1C` [RIFAMPIN], for which the MIC in assay [25], in assay [26] and in assay [28] was 0.015 µg/mL (≈ 0.0182 µM) throughout.
Turning to GENTAMICIN, the MIC in [25] worked out at 2 µg/mL; in assay [26], 128 µg/mL; in assay [28], 1 µg/mL.
`Cc1onc(-c2ccccc2)c1C(=O)N[C@@H]1C(=O)N2[C@@H]1SC(C)(C)[C@@H]2C(=O)O` [OXACILLIN]: the MIC in assay [25] was 64 µg/mL (≈ 159 µM); in assay [26] it was 16 µg/mL (≈ 39.9 µM); in assay [28] it was 0.5 µg/mL (≈ 1.25 µM). In addition, the log10CFU/ml in [1] is -1.51; in assay [2], -1.54; in [3], -1.02; in [4], -2.05; in assay [6] it was 0.21; in assay [7] it was -0.85. Moreover, the log10CFU/ml in assay [8] is -1.35; in assay [9], -2.7; in assay [10], -1.72; in assay [11] it was -2.52; in assay [12] it was -3; in assay [13], -0.91. In addition, the log10CFU/ml in assay [14] is -2.7; in assay [15], -0.85; in assay [16], -1.32; in assay [17], -0.05; in [18] it was -1.27; in assay [20], -1.75. Also, the log10CFU/ml in assay [21] was -1.47; in assay [22], -0.48; in [23], -0.94; in assay [24] it was -2.7.
